Data as given in US9708305B2, “Substituted 1,2,3,4-tetrahydroisoquinoline derivatives for the treatment of hormone-dependent diseases” (UNIVERSITÉ LAVAL, priority 2013, dated 2017).

What was measured:
[1] = target: T1, STS (Homo sapiens, UniProt P08842); test: STS inhibition of libraries 1-EO to 4-EO, homogenate of STS transfected HEK-293 cells; assay type: biochemical; conditions: mean ± SEM, triplicate
T1 construct: expressed in transfected cells; host or cells: HEK-293 cells stably transfected with STS (G418 selection), obtained from Dr. Van Luu-The; used as freeze-thaw homogenate
T1 sequence (P08842 22-583): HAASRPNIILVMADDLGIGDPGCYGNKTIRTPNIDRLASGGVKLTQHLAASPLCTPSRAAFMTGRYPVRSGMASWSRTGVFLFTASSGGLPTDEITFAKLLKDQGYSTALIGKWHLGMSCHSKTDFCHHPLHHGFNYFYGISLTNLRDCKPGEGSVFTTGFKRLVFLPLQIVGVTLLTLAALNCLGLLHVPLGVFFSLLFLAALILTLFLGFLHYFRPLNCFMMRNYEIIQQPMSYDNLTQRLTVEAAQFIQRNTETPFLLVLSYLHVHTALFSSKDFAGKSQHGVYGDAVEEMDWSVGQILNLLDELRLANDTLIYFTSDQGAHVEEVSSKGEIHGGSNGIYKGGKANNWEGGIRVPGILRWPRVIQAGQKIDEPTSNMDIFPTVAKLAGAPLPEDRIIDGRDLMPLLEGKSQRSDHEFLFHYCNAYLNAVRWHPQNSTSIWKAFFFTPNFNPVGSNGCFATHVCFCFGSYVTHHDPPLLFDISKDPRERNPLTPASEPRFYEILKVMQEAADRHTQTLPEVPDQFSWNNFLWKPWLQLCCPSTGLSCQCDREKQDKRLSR
Protocol: The enzymatic assay was performed using homogenate of STS transfected HEK-293 cells as the source of enzyme activity. The transformation of [^3H]-E1S into [^3H]-E1 was measured using scintillation counting of labeled E1S and E1 in the aqueous and organic phases, respectively. Newly synthesized sulfamate compounds were tested at two concentrations (0.1 μM and 1 μM). Libraries 1-EO and 2-EO were synthesized using the p- and m-benzamide spacers as 1st level of molecular diversity and the same wide variety of secondary amines as 2nd level of diversity (Table 2), which were chosen in a somewhat random fashion while including a different pattern, format and heteroatom. […] Compounds 1-EO-07, 1-EO-09 and 1-EO-10 represent a starting point for optimization, as they show more than 36% of inhibition when tested at a concentration of 0.1 μM. These compounds have relatively hydrophobic substituents compared to the rest of the library members. […] The average log P value for the rest of the library, excluding these three compounds, is 1.93.
This enzymatic assay was carried out according to a procedure previously described for the transformation of substrate [^3H]-E1S (100 μM) into [^3H]-E1 by homogenated HEK-293 cells over-expressing the enzyme activity.^56,73

[2] = system: T-47D cells; test: T-47D cell proliferation (estrogenicity / cytotoxicity), MTS; assay type: cell-based; conditions: Homo sapiens, T47D, control cells set to 100%, mean±SD
Protocol: The library of phenolic compounds described above was tested on estrogen-sensitive breast cancer T-47D cells.
In Table 1, cell proliferation of control cells is set to 100%. Results are expressed as mean±SD of one experiment in triplicate.
CellTitter 96® Aqueous One Solution Cell Proliferation Assay was used as an indirect colorimetric measurement of cell proliferation according to the manufacturer's instructions. Briefly, after the treatments, 20 μL of MTS solution was added to each well (100 μL) of the plates and incubated at 37° C. for 2 h (Saos-2) or 4 h (T-47D). The absorbance at 490 nm was then measured with a Thermo max microplate reader (Molecular Devices, Sunnyvale, Calif.). The control (culture media+DMSO) is set to 100% of cell proliferation.
The cells were plated in 96-well plates at a density of 3 000 cells/well and allowed to attach for 48 h. After this pre-incubation, the inhibitors and the reference compounds diluted in fresh culture media were added to the wells and replaced every 2 days for 7 days of treatment.

Structure (SMILES)	STS inhibition (%) ([1]; 0.1 μM)	STS inhibition (%) ([1]; 1 μM)	activity at 0.01 µM [2] [%]	activity at 0.1 µM [2] [%]	activity at 1 µM [2] [%]	further results
CN(C)CCCN(Cc1ccccc1)Cc1cccc(C(=O)N2CCc3ccc(OS(N)(=O)=O)cc3C2)c1 [4-EO-05]	23.8 ± 4.1	26.0 ± 8.5	–	–	–	–
CN(CCN1CCCCC1)Cc1cccc(C(=O)N2CCc3ccc(OS(N)(=O)=O)cc3C2)c1 [4-EO-06]	24.5 ± 7.4	30.8 ± 6.4	–	–	–	–
CN(CCCN1CCCCC1)Cc1cccc(C(=O)N2CCc3ccc(OS(N)(=O)=O)cc3C2)c1 [4-EO-07]	24.1 ± 0.4	30.6 ± 6.9	–	–	–	–
CN(C)CCN(CCN(C)C)Cc1cccc(C(=O)N2CCc3ccc(OS(N)(=O)=O)cc3C2)c1 [4-EO-08]	0.0 ± 0.0	17.1 ± 7.6	–	–	–	–
CC(C)CCN(CCC(C)C)Cc1cccc(C(=O)N2CCc3ccc(OS(N)(=O)=O)cc3C2)c1 [4-EO-09]	32.3 ± 2.9	–	–	–	–	–
NS(=O)(=O)Oc1ccc2c(c1)CN(C(=O)c1cccc(CN3CCc4ccccc4C3)c1)CC2 [4-EO-10]	24.1 ± 5.6	50.2 ± 1.9	–	–	–	–
NS(=O)(=O)Oc1ccc2c(c1)CN(C(=O)c1cccc(CN(Cc3ccccc3)Cc3ccco3)c1)CC2 [4-EO-11]	27.5 ± 0.9	–	–	–	–	–
CCN(Cc1cccc(Br)c1)Cc1cccc(C(=O)N2CCc3ccc(OS(N)(=O)=O)cc3C2)c1 [4-EO-12]	20.9 ± 7.1	24.9 ± 0.6	–	–	–	–
CCN(Cc1ccc(Br)cc1)Cc1cccc(C(=O)N2CCc3ccc(OS(N)(=O)=O)cc3C2)c1 [4-EO-13]	24.2 ± 4.9	–	–	–	–	–
CCN(Cc1cccc(C(=O)N2CCc3ccc(OS(N)(=O)=O)cc3C2)c1)Cc1ccccn1 [4-EO-14]	6.5 ± 6.9	19.9 ± 12.6	–	–	–	–
CCN(Cc1cccnc1)Cc1cccc(C(=O)N2CCc3ccc(OS(N)(=O)=O)cc3C2)c1 [4-EO-15]	14.3 ± 4.7	33.5 ± 5.8	–	–	–	–
CCN(Cc1ccncc1)Cc1cccc(C(=O)N2CCc3ccc(OS(N)(=O)=O)cc3C2)c1 [4-EO-16]	33.3 ± 0.0	52.8 ± 1.3	–	–	–	–
CCN(Cc1ccc(F)cc1)Cc1cccc(C(=O)N2CCc3ccc(OS(N)(=O)=O)cc3C2)c1 [4-EO-17]	10.9 ± 7.4	66.5 ± 4.5	–	–	–	–
CCN(Cc1ccccc1)Cc1ccc(CN2CCc3ccc(OS(N)(=O)=O)cc3C2)cc1 [Compound 11]	–	–	–	–	–	inhibition at 0.1 µM ([1]; 0.1 μM): 1%; inhibition at 1 µM ([1]; 1 μM): 17%
CCN(Cc1ccccc1)Cc1ccc(S(=O)(=O)N2CCc3ccc(OS(N)(=O)=O)cc3C2)cc1 [Compound 14]	–	–	–	–	–	inhibition at 0.1 µM ([1]; 0.1 μM): 10%; inhibition at 1 µM ([1]; 1 μM): 31%
O=C(c1ccc(CN(Cc2ccccn2)Cc2ccccc2OCCCN2CCCCC2)cc1)N1CCc2ccc(O)cc2C1 [Compound 19, (7-hydroxy-3,4-dihydroisoquinolin-2(1H)-yl)(4-{[{2-[3-(piperidin-1-yl)propoxy]benzyl}(pyridin-2-ylmethyl)amino]methyl}phenyl)methanone]	–	–	103 ± 6.9	99.8 ± 4.2	37.1 ± 4.2	–
O=C(c1ccc(CN(Cc2ccc(OCCCN3CCCCC3)cc2)Cc2ccccn2)cc1)N1CCc2ccc(O)cc2C1 [Compound 20, (7-hydroxy-3,4-dihydroisoquinolin-2(1H)-yl)(4-{[{4-[3-(piperidin-1-yl)propoxy]benzyl}(pyridin-2-ylmethyl)amino]methyl}phenyl)methanone]	–	–	105.9 ± 1	104 ± 4.8	60.7 ± 6.4	–
O=C(c1ccc(CN(Cc2ccco2)Cc2ccccc2OCCCN2CCCCC2)cc1)N1CCc2ccc(O)cc2C1 [Compound 21]	–	–	96.8 ± 1.2	106 ± 5.6	0	–
O=C(c1ccc(CN(Cc2ccc(OCCCN3CCCCC3)cc2)Cc2ccco2)cc1)N1CCc2ccc(O)cc2C1 [Compound 22, (4-{[(furan-2-ylmethyl){4-[3-(piperidin-1-yl)propoxy]benzyl}amino]methyl}phenyl)(7-hydroxy-3,4-dihydroisoquinolin-2(1H)-yl)methanone]	–	–	95.6 ± 1.8	120 ± 4.8	134 ± 3	–
O=C(c1ccc(CN(CCCn2ccnc2)Cc2ccccn2)cc1)N1CCc2ccc(O)cc2C1 [Compound 23, (7-hydroxy-3,4-dihydroisoquinolin-2(1H)-yl)[4-({[3-(1H-imidazol-1-yl)propyl](pyridin-2-ylmethyl)amino}methyl)phenyl]methanone]	–	–	103 ± 2.2	113 ± 3.7	39.2 ± 2.9	–
O=C(c1ccc(CN(CCCn2ccnc2)Cc2ccco2)cc1)N1CCc2ccc(O)cc2C1 [Compound 24, [4-({(furan-2-ylmethyl)[3-(1H-imidazol-1-yl)propyl]amino}methyl)phenyl](7-hydroxy-3,4-dihydroisoquinolin-2(1H)-yl)methanone]	–	–	94.9 ± 1.3	98.5 ± 4.5	115 ± 5.9	–
O=C(c1ccc(CN(Cc2ccc(Br)cc2)Cc2ccco2)cc1)N1CCc2ccc(O)cc2C1 [Compound 26, (4-{[(4-bromobenzyl)(furan-2-ylmethyl)amino]methyl}phenyl)(7-hydroxy-3,4-dihydroisoquinolin-2(1H)-yl)methanone]	–	–	106.3 ± 0.6	109 ± 1.2	59.2 ± 3.1	–
O=C(c1ccc(CN(CCN2CCOCC2)Cc2ccco2)cc1)N1CCc2ccc(O)cc2C1 [Compound 27, [4-({(furan-2-ylmethyl)[2-(morpholin-4-yl)ethyl]amino}methyl)phenyl](7-hydroxy-3,4-dihydroisoquinolin-2(1H)-yl)methanone]	–	–	108 ± 5.5	106 ± 1.5	119 ± 9.6	–
Cc1ccc(CN(Cc2ccc(C(=O)N3CCc4ccc(O)cc4C3)cc2)Cc2ccccn2)s1 [Compound 28, (7-hydroxy-3,4-dihydroisoquinolin-2(1H)-yl)[4-({[(5-methylthiophen-2-yl)methyl](pyridin-2-ylmethyl)amino}methyl)phenyl]methanone]	–	–	101 ± 3.8	105 ± 4.4	78.9 ± 6.8	–
O=C(c1ccc(CN(Cc2ccc(O)cc2)Cc2ccco2)cc1)N1CCc2ccc(O)cc2C1 [Compound 30, (4-{[(furan-2-ylmethyl)(4-hydroxybenzyl)amino]methyl}phenyl)(7-hydroxy-3,4-dihydroisoquinolin-2(1H)-yl)methanone]	–	–	108 ± 5.5	138 ± 1.2	200 ± 4.9	–
